In patent US20160243021A1, “Collagen-Boosting Compositions And Methods” (ELC MANAGEMENT LLC, priority 2015, published 2016):

Experiments:
Type in all cases: cell-based, human
adult NHDFs [1] = assay: Collagen-boosting assay, Example 3 (PIP ELISA; Argireline); conditions: 3 days
Method: In this assay, Argireline was tested for its efficacy in boosting collagen synthesis in NHDFs. TGFβ was run as a positive control.
Adult NHDFs were seeded and grown to confluence in a 96 well plate prior to treatment with Argireline at concentrations of 0.001, 0.01, 0.1 and 1% (v/v) in media (negative control) or with 10 ng/ml TGFβ (positive control) in media.
The plate was incubated for 3 days at 37° C./5% CO2. Supernatants were harvested and stored at −80° C. in siliconized tubes until the PIP ELISA was performed, as described in Example 1. For this assay, supernatants were diluted 1:40.

adult NHDFs [2] = assay: Collagen-boosting assay, Example 4 (PIP ELISA; Mitostime in combination with Argireline); conditions: 10 ng/ml; 3 days
Method: Mitostime also was tested in combination with Argireline for efficacy in boosting collagen synthesis in NHDFs. TGFβ, at 10 ng/ml, was run as a positive control. Adult NHDFs were seeded and grown to confluence in a 96 well plate prior to treatment with Mitostime at 0.3%/Argireline peptide at 0.00005%; Mitostime at 0.15%/Argireline peptide at 0.000025%; and Mitostime at 0.075%/Argireline peptide at 0.0000125%. The plate was incubated for 3 days at 37° C./5% CO2. Supernatants were harvested and stored at −80° C. in siliconized tubes until the PIP ELISA was performed as outlined in Example 1. For this assay, supernatants were diluted 1:200. […] TGFβ increased collagen synthesis by 23%.

adult NHDF cells = assay: Collagen-boosting assay, Example 5 (PIP ELISA; NXP-75); conditions: 10 ng/ml; 3 days
Method: In this assay, NXP-75 was tested for its efficacy in boosting collagen synthesis in NHDFs. TGFβ (10 ng/ml) was run as a positive control. Adult NHDF cells were seeded and grown to confluence in a 96 well flat bottom plate prior to treatment. NXP-75 powder was prepared at the following dilutions: 0.0001, 0.001, 0.01 and 0.1% (w/v) in media (negative control). The plate was incubated for 3 days at 37° C./5% CO2. Supernatants were harvested and stored at −80° C. in siliconized tubes until the PIP ELISA was performed. For this assay, supernatants were diluted 1:200. […] TGFβ enhanced collagen synthesis by 20% compared with media.

adult NHDFs [3] = assay: Collagen-boosting assay, Example 4 (PIP ELISA; Mitostime); conditions: 10 ng/ml; 3 days
Method: Mitostime was tested for its collagen-boosting efficacy in NHDFs. TGFβ, at 10 ng/ml, was run as a positive control. Adult NHDFs were seeded and grown to confluence in a 96 well plate prior to treatment with mitostime 0.075%, 0.15% and 0.3% (w/v). The plate was incubated for 3 days at 37° C./5% CO2. Supernatants were harvested and stored at −80° C. in siliconized tubes until the PIP ELISA was performed as outlined in Example 1. For this assay, supernatants were diluted 1:200. […] TGFβ increased collagen synthesis by 27% (p=0.0001).

acetyl hexapeptide-3 [Argireline]
increase in collagen synthesis compared with media (adult NHDFs [1]; 0.01%): 29%
increase in collagen synthesis compared with media (adult NHDFs [1]; 0.1% (v/v)): 76%

TGFβ
increase in collagen synthesis (adult NHDFs [2]): 23%
increase in collagen levels (adult NHDFs [1]; 10 ng/ml): 147%
boost of collagen synthesis compared with media (adult NHDF cells): 20%
increase in collagen synthesis compared with media (adult NHDFs [3]): 27%
